Measurements taken from ChEMBL document CHEMBL1255267, “Reduced Susceptibility of Proteus mirabilis to triclosan” (2008).
≈ marks a conversion by molar mass, not a printed value.

System: Proteus mirabilis
Experiment: Antibacterial activity against Proteus mirabilis M 29 mutant after 18 hrs by Etest method
Assay type: functional
Details: M 29, 18 h

Point of comparison: `CC1=C(C(=O)O)N2C(=O)[C@@H](NC(=O)[C@H](N)c3ccccc3)[C@H]2SC1` [CEPHALEXIN ANHYDROUS], MIC 2 µg/mL (≈ 5.76 µM). Against it:
- COc1cc(Cc2cnc(N)nc2N)cc(OC)c1OC [TRIMETHOPRIM] — higher, > 32 µg/mL

System: Proteus mirabilis
Experiment: Antibacterial activity against Proteus mirabilis M 12 mutant after 18 hrs by Etest method
Assay type: functional
Details: M 12, 18 h

Point of comparison: `COc1cc(Cc2cnc(N)nc2N)cc(OC)c1OC` [TRIMETHOPRIM], MIC 0.19 µg/mL (≈ 0.654 µM). Against it:
- CC1=C(C(=O)O)N2C(=O)[C@@H](NC(=O)[C@H](N)c3ccccc3)[C@H]2SC1 [CEPHALEXIN ANHYDROUS] — 7.9-fold higher, 1.5 µg/mL (≈ 4.32 µM)

System: Proteus mirabilis
Experiment: Antibacterial activity against Proteus mirabilis M 42 mutant after 18 hrs by Etest method
Assay type: functional
Details: M 42, 18 h

Point of comparison: `CC1=C(C(=O)O)N2C(=O)[C@@H](NC(=O)[C@H](N)c3ccccc3)[C@H]2SC1` [CEPHALEXIN ANHYDROUS], MIC 4 µg/mL (≈ 11.5 µM). Against it:
- COc1cc(Cc2cnc(N)nc2N)cc(OC)c1OC [TRIMETHOPRIM] — higher, > 32 µg/mL

System: Proteus mirabilis
Experiment: Antibacterial activity against Proteus mirabilis B2 after 18 hrs by Etest method
Assay type: functional
Details: B2, 18 h

Point of comparison: `CC1=C(C(=O)O)N2C(=O)[C@@H](NC(=O)[C@H](N)c3ccccc3)[C@H]2SC1` [CEPHALEXIN ANHYDROUS], MIC 6 µg/mL (≈ 17.3 µM). Against it:
- COc1cc(Cc2cnc(N)nc2N)cc(OC)c1OC [TRIMETHOPRIM] — higher, > 32 µg/mL

System: Proteus mirabilis
Experiment: Antibacterial activity against Proteus mirabilis M 19 mutant after 18 hrs by Etest method
Assay type: functional
Details: M 19, 18 h

Point of comparison: `CC1=C(C(=O)O)N2C(=O)[C@@H](NC(=O)[C@H](N)c3ccccc3)[C@H]2SC1` [CEPHALEXIN ANHYDROUS], MIC 4 µg/mL (≈ 11.5 µM). Against it:
- COc1cc(Cc2cnc(N)nc2N)cc(OC)c1OC [TRIMETHOPRIM] — higher, > 32 µg/mL

System: Proteus mirabilis
Experiment: Antibacterial activity against Proteus mirabilis NP43 after 18 hrs by Etest method
Assay type: functional
Details: NP43, 18 h

Point of comparison: `COc1cc(Cc2cnc(N)nc2N)cc(OC)c1OC` [TRIMETHOPRIM], MIC 0.4 µg/mL (≈ 1.38 µM). Against it:
- CC1=C(C(=O)O)N2C(=O)[C@@H](NC(=O)[C@H](N)c3ccccc3)[C@H]2SC1 [CEPHALEXIN ANHYDROUS] — 10-fold higher, 4 µg/mL (≈ 11.5 µM)

System: Proteus mirabilis
Experiment: Antibacterial activity against Proteus mirabilis M 26 mutant after 18 hrs by Etest method
Assay type: functional
Details: M 26, 18 h

Point of comparison: `CC1=C(C(=O)O)N2C(=O)[C@@H](NC(=O)[C@H](N)c3ccccc3)[C@H]2SC1` [CEPHALEXIN ANHYDROUS], MIC 3 µg/mL (≈ 8.64 µM). Against it:
- COc1cc(Cc2cnc(N)nc2N)cc(OC)c1OC [TRIMETHOPRIM] — higher, > 32 µg/mL

System: Proteus mirabilis
Experiment: Antibacterial activity against Proteus mirabilis M 17 mutant after 18 hrs by Etest method
Assay type: functional
Details: M 17, 18 h

Point of comparison: `COc1cc(Cc2cnc(N)nc2N)cc(OC)c1OC` [TRIMETHOPRIM], MIC 0.25 µg/mL (≈ 0.861 µM). Against it:
- CC1=C(C(=O)O)N2C(=O)[C@@H](NC(=O)[C@H](N)c3ccccc3)[C@H]2SC1 [CEPHALEXIN ANHYDROUS] — 4-fold higher, 1 µg/mL (≈ 2.88 µM)

System: Proteus mirabilis
Experiment: Antibacterial activity against Proteus mirabilis M 21 mutant after 18 hrs by Etest method
Assay type: functional
Details: M 21, 18 h

Point of comparison: `CC1=C(C(=O)O)N2C(=O)[C@@H](NC(=O)[C@H](N)c3ccccc3)[C@H]2SC1` [CEPHALEXIN ANHYDROUS], MIC 3 µg/mL (≈ 8.64 µM). Against it:
- COc1cc(Cc2cnc(N)nc2N)cc(OC)c1OC [TRIMETHOPRIM] — higher, > 32 µg/mL

System: Proteus mirabilis
Experiment: Antibacterial activity against Proteus mirabilis M 35 mutant after 18 hrs by Etest method
Assay type: functional
Details: M 35, 18 h

Point of comparison: `CC1=C(C(=O)O)N2C(=O)[C@@H](NC(=O)[C@H](N)c3ccccc3)[C@H]2SC1` [CEPHALEXIN ANHYDROUS], MIC 3 µg/mL (≈ 8.64 µM). Against it:
- COc1cc(Cc2cnc(N)nc2N)cc(OC)c1OC [TRIMETHOPRIM] — higher, > 32 µg/mL

System: Proteus mirabilis
Experiment: Antibacterial activity against Proteus mirabilis M 55 mutant after 18 hrs by Etest method
Assay type: functional
Details: M 55, 18 h

Point of comparison: `CC1=C(C(=O)O)N2C(=O)[C@@H](NC(=O)[C@H](N)c3ccccc3)[C@H]2SC1` [CEPHALEXIN ANHYDROUS], MIC 4 µg/mL (≈ 11.5 µM). Against it:
- COc1cc(Cc2cnc(N)nc2N)cc(OC)c1OC [TRIMETHOPRIM] — higher, > 32 µg/mL

System: Proteus mirabilis
Experiment: Antibacterial activity against Proteus mirabilis NP37 after 18 hrs by Etest method
Assay type: functional
Details: NP37, 18 h

Point of comparison: `CC1=C(C(=O)O)N2C(=O)[C@@H](NC(=O)[C@H](N)c3ccccc3)[C@H]2SC1` [CEPHALEXIN ANHYDROUS], MIC 4 µg/mL (≈ 11.5 µM). Against it:
- COc1cc(Cc2cnc(N)nc2N)cc(OC)c1OC [TRIMETHOPRIM] — higher, > 32 µg/mL

System: Proteus mirabilis
Experiment: Antibacterial activity against Proteus mirabilis M 40 mutant after 18 hrs by Etest method
Assay type: functional
Details: M 40, 18 h

Point of comparison: `CC1=C(C(=O)O)N2C(=O)[C@@H](NC(=O)[C@H](N)c3ccccc3)[C@H]2SC1` [CEPHALEXIN ANHYDROUS], MIC 3 µg/mL (≈ 8.64 µM). Against it:
- COc1cc(Cc2cnc(N)nc2N)cc(OC)c1OC [TRIMETHOPRIM] — higher, > 32 µg/mL

System: Proteus mirabilis
Experiment: Antibacterial activity against Proteus mirabilis NP14 after 18 hrs by Etest method
Assay type: functional
Details: NP14, 18 h

Point of comparison: `CC1=C(C(=O)O)N2C(=O)[C@@H](NC(=O)[C@H](N)c3ccccc3)[C@H]2SC1` [CEPHALEXIN ANHYDROUS], MIC 3 µg/mL (≈ 8.64 µM). Against it:
- COc1cc(Cc2cnc(N)nc2N)cc(OC)c1OC [TRIMETHOPRIM] — higher, > 32 µg/mL

System: Escherichia coli
Experiment: Antibacterial activity against Escherichia coli 10418 after 18 hrs by Etest method
Assay type: functional
Details: Escherichia coli, 10418, 18 h

Point of comparison: `CC1=C(C(=O)O)N2C(=O)[C@@H](NC(=O)[C@H](N)c3ccccc3)[C@H]2SC1` [CEPHALEXIN ANHYDROUS], MIC 2 µg/mL (≈ 5.76 µM). Against it:
- COc1cc(Cc2cnc(N)nc2N)cc(OC)c1OC [TRIMETHOPRIM] — 67-fold lower, 0.03 µg/mL (≈ 0.103 µM)

System: Proteus mirabilis
Experiment: Antibacterial activity against Proteus mirabilis NP55 after 18 hrs by Etest method
Assay type: functional
Details: NP55, 18 h

Point of comparison: `CC1=C(C(=O)O)N2C(=O)[C@@H](NC(=O)[C@H](N)c3ccccc3)[C@H]2SC1` [CEPHALEXIN ANHYDROUS], MIC 4 µg/mL (≈ 11.5 µM). Against it:
- COc1cc(Cc2cnc(N)nc2N)cc(OC)c1OC [TRIMETHOPRIM] — higher, > 32 µg/mL

System: Proteus mirabilis
Experiment: Antibacterial activity against Proteus mirabilis M 44 mutant after 18 hrs by Etest method
Assay type: functional
Details: M 44, 18 h

Point of comparison: `CC1=C(C(=O)O)N2C(=O)[C@@H](NC(=O)[C@H](N)c3ccccc3)[C@H]2SC1` [CEPHALEXIN ANHYDROUS], MIC 4 µg/mL (≈ 11.5 µM). Against it:
- COc1cc(Cc2cnc(N)nc2N)cc(OC)c1OC [TRIMETHOPRIM] — higher, > 32 µg/mL

System: Proteus mirabilis
Experiment: Antibacterial activity against Proteus mirabilis M 23 mutant after 18 hrs by Etest method
Assay type: functional
Details: M 23, 18 h

Point of comparison: `CC1=C(C(=O)O)N2C(=O)[C@@H](NC(=O)[C@H](N)c3ccccc3)[C@H]2SC1` [CEPHALEXIN ANHYDROUS], MIC 3 µg/mL (≈ 8.64 µM). Against it:
- COc1cc(Cc2cnc(N)nc2N)cc(OC)c1OC [TRIMETHOPRIM] — higher, > 32 µg/mL

System: Proteus mirabilis
Experiment: Antibacterial activity against Proteus mirabilis M 31 mutant after 18 hrs by Etest method
Assay type: functional
Details: M 31, 18 h

Point of comparison: `CC1=C(C(=O)O)N2C(=O)[C@@H](NC(=O)[C@H](N)c3ccccc3)[C@H]2SC1` [CEPHALEXIN ANHYDROUS], MIC 3 µg/mL (≈ 8.64 µM). Against it:
- COc1cc(Cc2cnc(N)nc2N)cc(OC)c1OC [TRIMETHOPRIM] — higher, > 32 µg/mL

System: Proteus mirabilis
Experiment: Antibacterial activity against Proteus mirabilis M 48 mutant after 18 hrs by Etest method
Assay type: functional
Details: M 48, 18 h

Point of comparison: `CC1=C(C(=O)O)N2C(=O)[C@@H](NC(=O)[C@H](N)c3ccccc3)[C@H]2SC1` [CEPHALEXIN ANHYDROUS], MIC 3 µg/mL (≈ 8.64 µM). Against it:
- COc1cc(Cc2cnc(N)nc2N)cc(OC)c1OC [TRIMETHOPRIM] — higher, > 32 µg/mL
